Test results: patent US20260109707A1, “HETEROBIFUNCTIONAL COMPOUNDS AND METHODS OF TREATING DISEASE” (Halda Therapeutics OpCo. Inc., priority 2022, published 2026)
Read-outs that look alike come from different tables or passages of the source.

Assays:
VCaP cells = test: Cellular growth inhibition assay for VCaP cells (CellTiter-Glo, 72 hours); assay type: cell-based, human
Experimental: VCaP cells were purchased from American Type Cell Culture (ATCC Cat #CRL2876) and then seeded on poly-D-lysine coated, black clear-bottom 384-well plates at 5000/well in 25 μL Dulbecco's Modified Eagle Medium (DMEM) supplemented with 10% w/w Fetal bovine serum (FBS) and 1% w/w Pen-Strep. Pen-Strep is a commercially available mixture of penicillin G and streptomycin, which is used in mammalian cell culture media to prevent bacterial contamination. Dulbecco's Modified Eagle Medium (DMEM) supplemented with 10% w/w fetal bovine serum (FBS) and 1% w/w Pen-Strep is herein referred to as Treatment Medium. Following seeding of cells in the plates, the plates were spun at 300×g for 30 seconds, then equilibrated to room temperature for 30 minutes, and then deposited in a humidified tissue culture incubator maintained at 37° C. with 5% C0-2.
At 24 hours after seeding of the cells, dilutions of test compound were prepared in DMSO and dissolved in Treatment Medium, to achieve a final DMSO concentration of 0.5% w/w, thereby providing the Test Compound Solution. A 25 μL aliquot of the Test Compound Solution was added to cells in the well plates. An equal volume of a solution containing DMSO and Treatment Medium was used as a negative control. Following treatment of cells with Test Compound Solution or said equal volume of a solution containing DMSO and Treatment Medium, the plates were spun at 300×g for 30 seconds, and then left in an incubator for 72 hours.
At the end of the treatment duration, cell viability was quantified with CellTiter-Glo 2.0 reagent (Promega Cat #G9243). For this purpose, plates were equilibrated to room temperature for 30 minutes, and then 25 μL of CellTiter-Glo 2.0 reagent was added to cells in the plate wells. Plates were then agitated on a shaker for two minutes at 500 rpm and subsequently incubated at room temperature for 10 minutes. Following incubation, the plates were spun at 3000×g for 30 seconds, then sealed with an optical adhesive cover, and luminescence readings were measured with an EnVision Plate Reader.
Data was normalized using zero luminescence for baseline. A four-parameter non-linear regression curve fit was applied to dose-response data in GraphPad Prism data analysis software to determine the half-maximal growth inhibitory concentration (GI50) for each test compound.

[1] = system: T-Rex 293 cell line SC3 cells lacking increased expression of androgen receptor protein; test: Cellular growth inhibition assay, T-Rex 293 SC3 cells without doxycycline (CellTiter-Glo, 72 hours); assay type: cell-based; conditions: T-Rex 293 cell line SC3 cells not exposed to doxycycline (lacking increased androgen receptor expression)
In short: (§1)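 Doxycycline (10 ng/mL) was either included or omitted to toggle wild-type androgen receptor expression in SC3 cells, a T-Rex 293 clone, grown in stripped-serum, phenol red-free medium. After 72 hours with compound, viable cells were quantified by CellTiter-Glo 2.0.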

[2] = system: T-Rex 293 cell line SC3 cells having increased expression of androgen receptor protein due to exposure to doxycycline; test: Cellular growth inhibition assay, T-Rex 293 SC3 cells with doxycycline (CellTiter-Glo, 72 hours); assay type: cell-based; conditions: T-Rex 293 SC3 cells with increased androgen receptor expression due to doxycycline (10 ng/mL)
In short: as §1

Cc1sc2c(c1C)C(c1cccc(N3CC4(CCN(c5ccc(C(=O)N[C@H]6CC[C@H](Oc7ccc(C#N)c(Cl)c7)CC6)nn5)CC4)C3)c1)=N[C@@H](C)c1nnc(C)n1-2 [I-683] was tested, and the GI50 (VCaP cells; Homo sapiens, VCaP, 72 h) was > 3000 nM, the GI50 ([1]; 72 h) was > 3000 nM and the GI50 ([2]; 72 h) was > 3000 nM.
For Cc1sc2c(c1C)C(c1ccc(N3CC4(CCC(Cc5ccc(C(=O)N[C@H]6CC[C@H](Oc7ccc(C#N)c(Cl)c7)CC6)nn5)CC4)C3)cc1)=N[C@@H](Cc1ncco1)c1nnc(C)n1-2 [I-515], the GI50 (VCaP cells; Homo sapiens, VCaP, 72 h) was < 500 nM, the GI50 ([1]; 72 h) was > 3000 nM and the GI50 ([2]; 72 h) was < 500 nM.
For Cc1sc2c(c1C)C(c1cccc(N3CC4(CCCN(c5ccc(C(=O)N[C@H]6CC[C@H](Oc7ccc(C#N)c(Cl)c7)CC6)nn5)C4)C3)c1)=N[C@@H](C)c1nnc(C)n1-2 [I-710], the GI50 (VCaP cells; Homo sapiens, VCaP, 72 h) was > 3000 nM, the GI50 ([1]; 72 h) was > 3000 nM and the GI50 ([2]; 72 h) was < 500 nM.
With Cc1sc2c(c1C)C(c1ccc(C3CCC(CC4CCN(c5ccc(C(=O)N[C@H]6CC[C@H](Oc7ccc(C#N)c(Cl)c7)CC6)nn5)CC4)CC3)cc1)=N[C@@H](C)c1nnc(C)n1-2 (stereo partly drawn) [I-764] the GI50 (VCaP cells; Homo sapiens, VCaP, 72 h) was < 500 nM, the GI50 ([1]; 72 h) was > 3000 nM and the GI50 ([2]; 72 h) was < 500 nM.
For Cc1sc2c(c1C)C(c1ccc(OCC3CC4(CCCN(c5ccc(C(=O)N[C@H]6CC[C@H](Oc7ccc(C#N)c(Cl)c7)CC6)nn5)C4)C3)cn1)=N[C@@H](C)c1nnc(C)n1-2 (stereo partly drawn) [I-482], the GI50 (VCaP cells; Homo sapiens, VCaP, 72 h) was < 500 nM, the GI50 ([1]; 72 h) was < 500 nM and the GI50 ([2]; 72 h) was < 500 nM.
Cc1sc2c(c1C)C(c1ccc(OCC3CCC4(CCCN(c5ccc(C(=O)N[C@H]6CC[C@H](Oc7ccc(C#N)c(Cl)c7)CC6)nn5)C4)C3)cc1)=N[C@@H](C)c1nnc(C)n1-2 (stereo partly drawn) [I-627] was tested, and the GI50 (VCaP cells) was < 500 nM, the GI50 [1] was < 500 nM and the GI50 [2] was < 500 nM.
In the case of Cc1sc2c(c1C)C(c1cccc(OC3CCC4(CCN(c5ccc(C(=O)N[C@H]6CC[C@H](Oc7ccc(C#N)c(Cl)c7)CC6)nn5)C4)C3)c1)=N[C@@H](C)c1nnc(C)n1-2 (stereo partly drawn) [I-750], the GI50 (VCaP cells) is reported as < 500 nM, the GI50 [1] is reported as < 500 nM and the GI50 [2] is reported as < 500 nM.
In the case of COCC[C@@H]1N=C(c2ccc(C3CCC4(CCN(c5ccc(C(=O)N[C@H]6CC[C@H](Oc7ccc(C#N)c(Cl)c7)CC6)nn5)CC4)C3)cc2)c2c(sc(C)c2C)-n2c(C)nnc21 (stereo partly drawn) [I-617], the GI50 (VCaP cells) is reported as < 500 nM, the GI50 [1] is reported as 500 to 1500 nM and the GI50 [2] is reported as < 500 nM.
In the case of CC[C@@H]1N=C(c2ccc(N3CC4(CC(Cc5ccc(C(=O)N[C@H]6CC[C@H](Oc7ccc(C#N)c(Cl)c7)CC6)nn5)C4)C3)cc2)c2c(sc(C)c2C)-n2c(C)nnc21 [I-610], the GI50 (VCaP cells; Homo sapiens, VCaP, 72 h) is reported as 500 to 1500 nM, the GI50 ([1]; 72 h) is reported as > 3000 nM and the GI50 ([2]; 72 h) is reported as < 500 nM.
With Cc1sc2c(c1C)C(c1ccc(C3CCC4(CCN(c5ccc(C(=O)N[C@H]6CC[C@H](Oc7ccc(C#N)c(Cl)c7)CC6)nn5)CC4)C3)nc1)=NC1(CC1)c1nnc(C)n1-2 (stereo partly drawn) [I-609] the GI50 (VCaP cells; Homo sapiens, VCaP, 72 h) was < 500 nM, the GI50 [1] was 500 to 1500 nM and the GI50 ([2]; 72 h) was < 500 nM.
In the case of CCNC(=O)C[C@@H]1N=C(c2ccc(OC3CC(N(C)C4CCN(c5ccc(C(=O)N[C@H]6CC[C@H](Oc7ccc(C#N)c(Cl)c7)CC6)nn5)CC4)C3)cc2)c2c(sc(C)c2C)-n2c(C)nnc21 (stereo partly drawn) [I-46], the GI50 (VCaP cells; Homo sapiens, VCaP, 72 h) is reported as < 500 nM, the GI50 ([1]; 72 h) is reported as 500 to 1500 nM and the GI50 ([2]; 72 h) is reported as < 500 nM.
With Cc1sc2c(c1C)C(c1ccc(OC3CC(CC4CCN(c5ccc(C(=O)N[C@H]6CC[C@H](Oc7ccc(C#N)c(Cl)c7)CC6)nn5)CC4)C3)cc1)=NC1(CC1)c1nnc(C)n1-2 (stereo partly drawn) [I-529] the GI50 (VCaP cells) was < 500 nM, the GI50 [1] was > 3000 nM and the GI50 [2] was < 500 nM.
With Cc1sc2c(c1C)C(c1ccc(NCC3CCCCN3c3ncc(C(=O)N[C@H]4CC[C@H](Oc5ccc(C#N)c(Cl)c5)CC4)cn3)cc1)=NC(Cc1ncco1)c1nnc(C)n1-2 (stereo partly drawn) [I-787] the GI50 (VCaP cells; Homo sapiens, VCaP, 72 h) was 500 to 1500 nM, the GI50 ([1]; 72 h) was < 500 nM and the GI50 ([2]; 72 h) was < 500 nM.
With Cc1sc2c(c1C)C(c1cccc(OCCC3CCN(c4ccc(C(=O)N[C@H]5CC[C@H](Oc6ccc(C#N)c(Cl)c6)CC5)nn4)CC3)c1)=N[C@@H](C)c1nnc(C)n1-2 [I-647] the GI50 (VCaP cells; Homo sapiens, VCaP, 72 h) was < 500 nM, the GI50 ([1]; 72 h) was > 3000 nM and the GI50 ([2]; 72 h) was < 500 nM.
